Measured values from patent US20090131513A1, “ANTI-INFLAMMATORY MODALITIES” (Novogen Research Pty Ltd., priority 2005, published 2009).

Assays:
[1] = test system: UV irradiation-induced skin oedema; assay: Murine model of UV irradiation-induced skin oedema; type: in vivo, mice (Skh:hr-1 albino); details: for Increase in skin thickness (mean ± SD, ×0.01 mm): topical 0.2 ml of 20 μM at 30 min, 2 h, 4 h; for skin oedema, in words: 48 hrs, topical
Description: Groups of 4-5 female Skh:hr-1 albino mice were irradiated with 1×3 MEdD (minimal edematous dose) of solar simulated UV radiation (SSUV). Solar-simulated ultraviolet radiation (SSUV) was provided by a planar bank of 6 UVA tube (Hitachi 40 W F40 T 10/BL, black light) and one UVB tube (Philips TL 40 W/12 RS) with radiation filtered through a sheet of 0.125 mm cellulose acetate (Eastman Chemical Products, Kingport, Term, USA) to give 2.96×10-4 W/cm2 UVA and 1.59×10-5 W/cm2 UVB. During irradiation, the cages were rotated below the lights to reduce the variation in radiation intensity in different positions.
Either test compound (0.2 ml of a 20 μM solution) or vehicle (propylene glycol/ethanol/water 1:2:1) was applied to the irradiated dorsal skin at 30 min, 2 h and 4 h post-irradiation. Dorsal skin fold measurements were made with a spring micrometer prior to and at 24 hr and 48 h post-UV exposure. The difference in skin thickness pre- and post-exposure to UVR was calculated for each mouse, and the differences examined between test compound and vehicle control were analysed using an unpaired two-tailed t test.

DSS-induced colitis = assay: Murine model of DSS-induced colitis; type: in vivo, mice (BALB/c); details: for maximum mean weight loss: vehicle 5%; for day at which clinical signs became evident: vehicle day 5; for colitis, in words: Experiment 1, 1 mg/kg throughout until day 17; for mean clinical score compared with vehicle, in words: Experiment 1, day 11; for day of switch from mean body weight loss to mean body weight gain: Experiment 1, vehicle day 15; for colonic inflammation, in words: series of experiments, 1.0-1.25 mg/kg single oral dose per day; for inflammation, in words: Experiment 2, 1 mg/kg for 10 days prior to DSS only
Protocol: Female BALB/c mice, 6-7 weeks old, were housed for a minimum of one week before any experimental work began. To induce colitis, dextran sulphate sodium (DSS—molecular weight 40 kD, TdB Consultancy AB, Uppsala, Sweden (Dieleman et al. 1994), was administered fresh daily in the drinking water at a concentration of 4.5-5% for 5 days (Okayasu et al. 1990), after which water alone was given. This regime induced mild colitis, evidenced by diarrhea and rectal bleeding, the severity of which was scored, as well as a reduction in the length of the colon. Histologically, colonic inflammation was evidenced by ulceration and an infiltration of neutrophils into the mucosa, which was also scored. The systemic effect of the colitis causes weight loss, which was also monitored.
Either vehicle (PEG 400:PBS1:1) Compounds 1 or 4 were administered at a dose rate of 1 mg/kg throughout the experiment until the mice were killed at day 17.
Either Compounds 1 and 2, at a dose of 1 mg/kg or vehicle were administered for 10 days prior to DSS being added to the drinking water to induce colitis, after which test compound was stopped. DSS was administered for 5 days and the mice killed 8 days later (day 23).
Either the cis or the trans isomers of Compound 3 (Compound 3a and 3b respectively) at 1.25 mg/kg or vehicle were administered throughout the experiment until the mice were killed at day 17.

[2] = test system: inflammed rat air pouches (serum-treated zymozan); assay: Rat air pouch assay; type: in vivo, rats (Dark Agouti); details: 0.5 ml of 100 μM into pouch; for Polymorphs in tissue sections (per 100 squares): 4 h; for Leucocytes in lavage fluid (×10^−7): lavage at 4 h
Protocol: An alternative assay used to measure anti-inflammatory efficacy is the air pouch model which involves the repeated subcutaneous injection of air into the dorsum of rats followed 24 h later by the intrapouch injection of an inflammatory stimulus (Gilroy et al. 1998).
Air pouches were raised on the dorsum of female Dark Agouti rats, approximately 7 weeks of age. To promote the formation of a cellular membrane lining the inside of each pouch, the pouches were maintained by re-inflating on days 2 and 5 after the initial injection of air. On re-inflation, the pouch was first deflated to ensure the needle was positioned correctly, before being re-inflated with 2 mL of sterile air. Using this protocol, the pouches remained inflated until use on day 7, when they were injected with 0.5 ml of either test compound at 100 μM or vehicle control. After 15 min, air pouches were injected with serum-treated zymozan (STZ-500 μg). Lavage of the air pouch (4×2 ml lavages) was performed at 4 h and leucocytes counted, after which the rats were killed, the air pouch excised and processed in formalin for histology. The sections were blinded to the person counting. Using a graticule with 100 squares and the 40× objective, the number of polymorphs were counted in the pouch lining at 10 different and non-adjacent sites. Group sizes were 5-6 rats. Data were analysed for statistical significance within each experiment and using an unpaired t test.

[3] = test system: AA-induced ear inflammation; assay: Murine ear inflammation induced by arachidonic acid; type: in vivo, mice (BALB/c); details: for Increase in ear thickness (mean ± SD, ×0.01 mm): 25 mg/kg i/p, 1 hr post-AA application
Description: Compounds were examined for their ability to inhibit ear swelling in mice induced by the topical application of arachidonic acid (AA). The inflammatory response due AA, the immediate precursor of the eicosanoids, is due to formation of AA metabolites via both the cyclooxygenase (COX) and lipoxygenase (LOX) pathways (Young et al. 1984). AA induces an increase in both PGE2 and LTC4 synthesis which precedes the increase in ear thickness (Opas et al. 1985; Chang et al. 1986).
Female BALB/c mice (ARC, WA, Australia), weighing 15-21 g were injected with Compound 2 delivered in polyethylene glycol (PEG) 400:phosphate buffered saline (PBS) 1:1 intraperitoneally (i/p) at a dose of 25 mg/kg either 30 min prior to or immediately before the application of AA to the ears. Mice were anaesthetized using isoflurane and baseline thickness of both ears was measured using a spring micrometer. Each mouse received a total of 20 μL of AA in ethanol (50 mg/ml) applied to the inner and outer surfaces of each pinna (i.e. 0.5 mg AA per ear). Mice were anaesthetized again to remeasure the ears at 1 hr post-AA application.
The difference in ear swelling pre- and post-application of AA for each ear was calculated, and the average for the two ears of each mouse calculated. The difference in mean swelling of each test group compared to the group given vehicle alone was calculated using a two-tailed unpaired t test (Prism 4, GraphPad Software).

Row | SMILES | Increase in skin thickness (mean ± SD, ×0.01 mm) ([1]; 24 hrs post-irradiation) | Increase in skin thickness (mean ± SD, ×0.01 mm) ([1]; 48 hrs post-irradiation) | colon length compared with vehicle (trend), in words (DSS-induced colitis; Experiment 1, 1 mg/kg oral) | mean histology scores, in words (DSS-induced colitis; Experiment 1, 1 mg/kg oral) | maximum mean weight loss (DSS-induced colitis; Experiment 1, 1 mg/kg oral) | day at which clinical signs became evident (DSS-induced colitis; Experiment 1, 1 mg/kg oral) | colitis, in words (DSS-induced colitis) | mean clinical score compared with vehicle, in words (DSS-induced colitis) | day of switch from mean body weight loss to mean body weight gain (DSS-induced colitis) | colonic inflammation, in words (DSS-induced colitis) | Polymorphs in tissue sections (per 100 squares) [2] | Leucocytes in lavage fluid (×10^−7) [2] | Increase in ear thickness (mean ± SD, ×0.01 mm) [3] | skin oedema, in words [1] | inflammation, in words (DSS-induced colitis) | further results
1 | O=C1c2cc(Cl)c(O)cc2OCC1c1ccc(O)cc1 (stereo not drawn) [Compound 4] | 63 ± 22 ×0.01 mm | 145 ± 11 ×0.01 mm | longer | less colitis | 1% | 6 days | decreased colitis | significantly lower | 12 days | reduced colonic inflammation | 23.4 ± 8.8 per 100 squares | 1.00 ± 0.38 ×10^−7 | 9.2 ± 3.6 ×0.01 mm |  |  | 
2 | Oc1ccc(C2COc3c(ccc(O)c3O)C2O)cc1 (stereo not drawn) [Compound 2] | 68 ± 24 ×0.01 mm | 105 ± 22 ×0.01 mm |  |  |  |  |  |  |  | reduced colonic inflammation | 14.3 ± 5.7 per 100 squares | 0.68 ± 0.36 ×10^−7 | 6.5 ± 2.9 ×0.01 mm | significantly inhibited | Inflammation was reduced | body weight versus vehicle (DSS-induced colitis; Experiment 2, day 22): weighed significantly more than those receiving vehicle (p=0.0291); body weight loss associated with DSS-induced colonic inflammation (DSS-induced colitis; Experiment 2, pre-dosed 1 mg/kg for 10 days): reduced the body weight loss; AA-induced ear inflammation / ear thickness compared with vehicle, in words ([3]; mouse, in vivo): significant reduction in ear thickness
3 | O=C1c2ccc(O)c(Br)c2OCC1c1ccc(O)cc1 (stereo not drawn) [Compound 1, 3-(4-hydroxyphenyl)-7-hydroxy-8-bromo-chroman-4-one] | 54 ± 20 ×0.01 mm | 91 ± 7.6 ×0.01 mm | longer | less colitis | 2% | 6 days | decreased colitis | significantly lower | 10 days | reduced colonic inflammation | 31.0 ± 7.25 per 100 squares | 0.89 ± 0.42 ×10^−7 | 9.5 ± 2.3 ×0.01 mm | significantly inhibited | Inflammation was reduced | comparative anti-inflammatory activity between test compounds (DSS-induced colitis; Experiment 1, 1 mg/kg): better anti-inflammatory activity; ulceration of the colonic epithelium compared with vehicle (DSS-induced colitis; Experiment 1, 1 mg/kg oral): statistically significant (p=0.0135) less ulceration; colon length versus control group not given DSS (DSS-induced colitis; Experiment 2, pre-dosed 1 mg/kg): not statistically different in length from those of the control group
